Data on four compounds can be found in publication PMC5379747, “Structural basis for a novel type of cytokinin-activating protein” (Scientific Reports, 2017).

One assay has as its target T1, Cg1261ΔDNR (CgLOGIIΔDNR) (Corynebacterium glutamicum, UniProt Q8NRE2).
T1 construct: gene Cgl1110; E. coli expressed, hexamer
In words: TLC detection of adenine released from AMP. Type of assay: biochemical. Conditions: 20 mM AMP, 36 mM Tris-HCl pH 8.0, 23 μM enzyme, 30 °C.

Assay [1] has as its target T2, Cg1261 (CgLOGII, CgLOGIIF) (Corynebacterium glutamicum, UniProt Q8NRE2, D177A).
T2 construct: gene Cgl1110; full length, pET30a with C-terminal 6xHis, E. coli BL21(DE3), hexamer; residues 1-39 disordered in crystal
In words: TLC detection of adenine released from AMP. The format is biochemical. To be noted: 20 mM AMP, 36 mM Tris-HCl pH 8.0, 23 μM enzyme, 6 h.

Assay [2] deals with T3, Cg1261 (CgLOGII, CgLOGIIF) (Corynebacterium glutamicum, UniProt Q8NRE2, F153A).
T3 construct: gene Cgl1110; full length, pET30a with C-terminal 6xHis, E. coli BL21(DE3), hexamer; residues 1-39 disordered in crystal
In words: TLC detection of adenine released from AMP. To be noted: 20 mM AMP, 36 mM Tris-HCl pH 8.0, 23 μM enzyme, 6 h. Type of assay: biochemical.

The next assay concerns the target T4, Tt1465 (TtLOGII) (Thermus thermophilus, UniProt Q5SHT6).
T4 construct: gene TTHA1644; recombinant, prepared similarly to CgLOGII; hexamer
T4 sequence (Q5SHT6 1-217): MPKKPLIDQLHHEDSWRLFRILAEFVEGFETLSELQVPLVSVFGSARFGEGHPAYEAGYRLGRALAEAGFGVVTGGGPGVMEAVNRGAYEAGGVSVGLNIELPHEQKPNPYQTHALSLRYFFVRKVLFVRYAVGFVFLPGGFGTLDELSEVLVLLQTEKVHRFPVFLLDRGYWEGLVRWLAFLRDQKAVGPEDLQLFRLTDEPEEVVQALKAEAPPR
In words: TLC detection of adenine released from AMP. The format is biochemical. To be noted: 20 mM AMP, 36 mM Tris-HCl pH 8.0, 23 μM enzyme, 65 °C.

The target in assay [3] is T5, Cg1261 (CgLOGII, CgLOGIIF) (Corynebacterium glutamicum, UniProt Q8NRE2, F152A).
T5 construct: gene Cgl1110; full length, pET30a with C-terminal 6xHis, E. coli BL21(DE3), hexamer; residues 1-39 disordered in crystal
In words: TLC detection of adenine released from AMP. Type of assay: biochemical. To be noted: 20 mM AMP, 36 mM Tris-HCl pH 8.0, 23 μM enzyme, 6 h.

Assay [4] deals with T6, Cg1261 (CgLOGII, CgLOGIIF) (Corynebacterium glutamicum, UniProt Q8NRE2).
T6 construct: gene Cgl1110; full length, pET30a with C-terminal 6xHis, E. coli BL21(DE3), hexamer; residues 1-39 disordered in crystal
T6 sequence (Q8NRE2 1-256): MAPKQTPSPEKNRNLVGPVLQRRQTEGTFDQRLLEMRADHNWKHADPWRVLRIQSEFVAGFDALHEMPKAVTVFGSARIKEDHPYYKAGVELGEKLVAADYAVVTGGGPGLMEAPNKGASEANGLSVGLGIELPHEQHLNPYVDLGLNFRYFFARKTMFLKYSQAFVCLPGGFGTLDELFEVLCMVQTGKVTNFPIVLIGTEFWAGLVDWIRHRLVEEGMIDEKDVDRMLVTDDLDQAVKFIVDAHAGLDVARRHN
In words: TLC detection of adenine released from AMP. Type of assay: biochemical. To be noted: 20 mM AMP, 36 mM Tris-HCl pH 8.0, 23 μM enzyme, 30 °C.

Assay [5] deals with T7, Cg1261 (CgLOGII, CgLOGIIF) (Corynebacterium glutamicum, UniProt Q8NRE2, M185A).
T7 construct: gene Cgl1110; full length, pET30a with C-terminal 6xHis, E. coli BL21(DE3), hexamer; residues 1-39 disordered in crystal
In words: TLC detection of adenine released from AMP. To be noted: 20 mM AMP, 36 mM Tris-HCl pH 8.0, 23 μM enzyme, 6 h. The format is biochemical.

Assay [6] addresses Cg1261 (CgLOGII), full-length, from Corynebacterium glutamicum ATCC 13032 (Corynebacterium glutamicum ATCC 13032). In words: SAXS; in solution, 4 °C, 0.5 ~4.5 mg/mL; molecular mass by the QR method.
Assay [7] shares this target. In words: SEC; analytical, Superdex 200 10/300, 150 mM NaCl, 1 mL of 3 mg/ml; masses from a calibration curve of standards. On the technique in general: In gel filtration, larger molecules generally elute earlier.
Assay [8] has the same target. In words: crystal structure; CgLOGII crystals, space group C222_(1), three molecules in the asymmetric unit; hexamer generated by crystallographic symmetry; 1.95 Å.
The target in assay [9] is Cg1261 DNR-truncated (Cg1261ΔDNR) (Corynebacterium glutamicum ATCC 13032). In words: SAXS; in solution, 4 °C, 0.5 ~4.5 mg/mL; molecular mass by the QR method.
Assay [10] has the same target. In words: SEC; analytical, Superdex 200 10/300, 150 mM NaCl, 1 mL of 3 mg/ml; masses from a calibration curve of standards.
Assay [11] addresses CgLOG (Cg2612) from Corynebacterium glutamicum (Corynebacterium glutamicum). The assay is described as above.

T5 sequence (Q8NRE2 entry or part of it F152A): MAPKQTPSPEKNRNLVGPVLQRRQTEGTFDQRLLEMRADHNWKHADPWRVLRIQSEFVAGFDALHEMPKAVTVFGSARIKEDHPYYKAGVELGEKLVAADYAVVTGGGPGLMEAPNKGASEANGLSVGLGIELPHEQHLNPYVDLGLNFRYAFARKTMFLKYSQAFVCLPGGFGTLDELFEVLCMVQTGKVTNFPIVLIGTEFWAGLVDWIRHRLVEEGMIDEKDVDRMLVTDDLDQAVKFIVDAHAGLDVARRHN
T7 sequence (Q8NRE2 entry or part of it M185A): as the sequence (Q8NRE2 entry or part of it F152A) above, with A152F, M185A counted along it
T2 sequence (Q8NRE2 entry or part of it D177A): as the sequence (Q8NRE2 entry or part of it F152A) above, with A152F, D177A counted along it
T3 sequence (Q8NRE2 entry or part of it F153A): as the sequence (Q8NRE2 entry or part of it F152A) above, with A152F, F153A counted along it

For `Nc1ncnc2c1ncn2[C@@H]1O[C@H](COP(=O)(O)O)[C@@H](O)[C@H]1O` [AMP], the “TLC detection of adenine released from AMP” value on Cg1261ΔDNR (CgLOGIIΔDNR) is “Cg1261ΔDNR showed the same level of phosphoribohydrolase activity as Cg1261”; in assay [1], “Asp177Ala substitution resulted in an almost complete loss of the activity”; in assay [2], “such as Phe152, Phe153, and Met185, substituted with alanine still showed the activity”; at Tt1465 (TtLOGII) it was “Tt1465 hydrolyzed AMP into an adenine base and ribose 5-phosphate”; in assay [3], “such as Phe152, Phe153, and Met185, substituted with alanine still showed the activity”; in [4] it was “hydrolyzed AMP into an adenine base and ribose 5-phosphate”. The “TLC detection of adenine released from AMP” value in [5] is “such as Phe152, Phe153, and Met185, substituted with alanine still showed the activity”.
Turning to “Cg1261 (CgLOGII), full-length, from Corynebacterium glutamicum ATCC 13032 (enzyme)”, the stoichiometry N in [6], in assay [7] and in [8] was 6 in each case.
Turning to “Cg1261 DNR-truncated (Cg1261ΔDNR) (domain or fragment)”, the stoichiometry N in assay [9] and in [10] was 6 each time.
For the compound “CgLOG (Cg2612) from Corynebacterium glutamicum (enzyme)”, the stoichiometry N in assay [11] was determined as 2.

The stoichiometry N is the number of molecules, sites or subunits per partner or assembly.
